Assay results published in patent US10407422B2, “Triazolopyridine inhibitors of myeloperoxidase” (priority 2015, dated 2019).

Tests used:
[1] = target: T1, myeloperoxidase (MPO) (Homo sapiens (Human), UniProt P05164); experiment: MPO peroxidation assay (Amplex Red assay); format: biochemical; details: potency range class
How it was run: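 IC50 values come from a four-parameter fit of rates taken from the linear 180-540 s portion of a 15 min kinetic read of resorufin (Ex 535/Em 590 nm). Amplex Red (200 μM) plus 10 mM H2O2 was added after a 10 min room-temperature preincubation of inhibitor with 200 pM MPO and 40 nM H2O2 in 100 mM KPi, pH 7.4.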

[2] = target: T1, myeloperoxidase (MPO); experiment: MPO chlorination assay (APF assay); format: biochemical; details: potency range class
How it was run: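 Chlorinating activity followed by APF cleavage to fluorescein (485/535 nm, 3 min kinetic read) after adding APF and 10 μM H2O2. Beforehand, 200 pM enzyme, compound and 120 mM NaCl sat 10 min at room temperature in 100 mM KPi, pH 7.4. Initial-rate slopes gave % inhibition; IC50 by Hill-slope fit.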

T1 sequence (P05164 49-745): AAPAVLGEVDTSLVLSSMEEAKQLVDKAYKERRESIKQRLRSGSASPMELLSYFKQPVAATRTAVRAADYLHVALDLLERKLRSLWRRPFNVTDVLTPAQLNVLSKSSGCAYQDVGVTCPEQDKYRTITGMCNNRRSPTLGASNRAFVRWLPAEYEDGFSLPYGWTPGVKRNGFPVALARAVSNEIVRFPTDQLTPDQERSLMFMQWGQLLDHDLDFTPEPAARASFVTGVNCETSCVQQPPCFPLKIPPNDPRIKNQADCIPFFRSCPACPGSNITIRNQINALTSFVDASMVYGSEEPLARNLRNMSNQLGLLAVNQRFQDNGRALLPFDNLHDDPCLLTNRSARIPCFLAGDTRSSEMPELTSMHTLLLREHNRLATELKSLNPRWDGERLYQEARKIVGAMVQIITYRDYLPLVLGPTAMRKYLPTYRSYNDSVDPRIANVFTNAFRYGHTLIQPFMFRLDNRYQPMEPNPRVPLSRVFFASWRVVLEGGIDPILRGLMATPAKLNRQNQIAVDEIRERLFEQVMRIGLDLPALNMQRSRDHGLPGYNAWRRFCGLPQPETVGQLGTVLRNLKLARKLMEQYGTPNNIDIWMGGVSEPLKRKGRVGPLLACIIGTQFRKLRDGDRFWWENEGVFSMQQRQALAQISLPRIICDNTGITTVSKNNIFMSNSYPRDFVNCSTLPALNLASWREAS

Row | SMILES | IC50 [1] [nM] | IC50 [2] [nM]
1 | CC(C)(C)OC(=O)N1CCCc2ccc(Cn3cc(Cc4cc(N)nc5[nH]nnc45)cn3)cc21 [Example 147, tert-Butyl 7-{[4-({5-amino-3H-[1,2,3]triazolo[4,5-b]pyridin-7-yl}methyl)-1H-pyrazol-1-yl]methyl}-1,2,3,4-tetrahydroquinoline-1-carboxylate] | 101 to 999 | 101 to 999
2 | Nc1cc(Cc2cnn(C3CCNC3)c2)c2nn[nH]c2n1 (stereo not drawn) [Example 66, 7-((1-(Pyrrolidin-3-yl)-1H-pyrazol-4-yl)methyl)-3H-[1,2,3]triazolo[4,5-b]pyridin-5-amine] | 101 to 999 | 101 to 999
3 | CN(C)C(=O)[C@@H]1C[C@@H](Oc2cccc(Cn3cc(Cc4cc(N)nc5[nH]nnc45)cn3)c2)CN1 [Example 247, (2S,4R)-4-(3-{[4-({5-Amino-3H-[1,2,3]triazolo[4,5-b]pyridin-7-yl}methyl)-1H-pyrazol-1-yl]methyl}phenoxy)-N,N-dimethylpyrrolidine-2-carboxamide] | 101 to 999 | 101 to 999
4 | Cc1ccc([C@H]2CNC(=O)C2)cc1Cn1cc(Cc2cc(N)nc3[nH]nnc23)cn1 [Example 192, (4S)-4-(3-{[4-({5-Amino-3H-[1,2,3]triazolo[4,5-b]pyridin-7-yl}methyl)-1H-pyrazol-1-yl]methyl}-4-methylphenyl)pyrrolidin-2-one] | 101 to 999 | 101 to 999
5 | Nc1cc(Cc2cnn(Cc3ccc(CNC(=O)CN4CCCC4)cc3)c2)c2nn[nH]c2n1 [Example 253, N-[(4-{[4-({5-Amino-3H-[1,2,3]triazolo[4,5-b]pyridin-7-yl}methyl)-1H-pyrazol-1-yl]methyl}phenyl)methyl]-2-(pyrrolidin-1-yl)acetamide] | 101 to 999 | 101 to 999
6 | Cc1ccccc1-n1cc(Cc2cc(N)nc3[nH]nnc23)cn1 [Example 24, 7-((1-(2-Methylphenyl)-1H-pyrazol-4-yl)methyl)-3H-[1,2,3]triazolo[4,5-b]pyridin-5-amine] | 101 to 999 | 1 to 100
7 | N#Cc1cccc(-c2ccc(Cn3cc(Cc4cc(N)nc5[nH]nnc45)cn3)cc2)c1 [Example 154, 3-(4-{[4-({5-Amino-3H-[1,2,3]triazolo[4,5-b]pyridin-7-yl}methyl)-1H-pyrazol-1-yl]methyl}phenyl)benzonitrile] | 101 to 999 | 101 to 999
8 | Nc1cc(Cc2cnn(Cc3cccc(CN4CCOCC4)c3)c2)c2nn[nH]c2n1 [Example 256, 7-[(1-{[3-(Morpholin-4-ylmethyl)phenyl]methyl}-1H-pyrazol-4-yl)methyl]-3H-[1,2,3]triazolo[4,5-b]pyridin-5-amine] | 101 to 999 | 101 to 999
9 | Nc1cc(Cc2cnn(Cc3ccc4c(c3)CC[C@@H]4N)c2)c2nn[nH]c2n1 [Example 270, 7-[(1-{[(1S)-1-Amino-2,3-dihydro-1H-inden-5-yl]methyl}-1H-pyrazol-4-yl)methyl]-3H-[1,2,3]triazolo[4,5-b]pyridin-5-amine] | 101 to 999 | 101 to 999
10 | Cc1cc(Cc2cc(N)nc3[nH]nnc23)no1 [Example 71, 7-[(5-Methyl-1,2-oxazol-3-yl)methyl]-3H-[1,2,3]triazolo[4,5-b]pyridin-5-amine] | 101 to 999 | 101 to 999
11 | Nc1cc(Cc2cnn(Cc3ccc(N4CCOCC4)cc3)c2)c2nn[nH]c2n1 [Example 111, 7-((1-(4-Morpholinobenzyl)-1H-pyrazol-4-yl)methyl)-3H-[1,2,3]triazolo[4,5-b]pyridin-5-amine] | 1000 to 10000 | 101 to 999
12 | Nc1cc(Cc2cnn(-c3ccccc3)n2)c2nn[nH]c2n1 [Example 6, 7-((2-Phenyl-2H-1,2,3-triazol-4-yl)methyl)-3H-[1,2,3]triazolo[4,5-b]pyridin-5-amine] | 101 to 999 | 101 to 999

Continued, values first:

Row | IC50 [1] [nM] | IC50 [2] [nM] | SMILES
13 | 101 to 999 | 101 to 999 | Nc1cc(Cc2cnn(Cc3ccc4cnccc4c3)c2)c2nn[nH]c2n1 [Example 127, 7-((1-(Isoquinolin-6-ylmethyl)-1H-pyrazol-4-yl)methyl)-3H-[1,2,3]triazolo[4,5-b]pyridin-5-amine]
14 | 1 to 100 | 101 to 999 | Nc1cc(Cc2cnn(Cc3cc([C@@H]4CCNC4)ccc3Cl)c2)c2nn[nH]c2n1 [Example 198, 7-{[1-({2-Chloro-5-[(3 S)-pyrrolidin-3-yl]phenyl}methyl)-1H-pyrazol-4-yl]methyl}-3H-[1,2,3]triazolo[4,5-b]pyridin-5-amine]
15 | 1 to 100 | 101 to 999 | Nc1cc(Cc2cnn(Cc3cc([C@@H]4CCNC4)ccc3C(F)(F)F)c2)c2nn[nH]c2n1 [Example 193, 7-{[1-({5-[(3S)-Pyrrolidin-3-yl]-2-(trifluoromethyl)phenyl}methyl)-1H-pyrazol-4-yl]methyl}-3H-[1,2,3]triazolo[4,5-b]pyridin-5-amine]
16 | 1 to 100 | 1 to 100 | Nc1cc(Cc2cnn(Cc3cccc(OC4CCCNC4)c3)c2)c2nn[nH]c2n1 (stereo not drawn) [Example 234, 7-[(1-{[3-(Piperidin-3-yloxy)phenyl]methyl}-1H-pyrazol-4-yl)methyl]-3H-[1,2,3]triazolo[4,5-b]pyridin-5-amine]
17 | 1 to 100 | 1 to 100 | Nc1cc(Cc2cnn(Cc3cccc(Oc4cccc5c4CNCC5)c3)c2)c2nn[nH]c2n1 [Example 237, 7-[(1-{[3-(1,2,3,4-Tetrahydroisoquinolin-8-yloxy)phenyl]methyl}-1H-pyrazol-4-yl)methyl]-3H-[1,2,3]triazolo[4,5-b]pyridin-5-amine]
18 | 1 to 100 | 1 to 100 | Nc1cc(Cc2cnn(-c3ccccc3F)c2)c2nn[nH]c2n1 [Example 4, 7-((1-(2-Fluorophenyl)-1H-pyrazol-4-yl)methyl)-3H-[1,2,3]triazolo[4,5-b]pyridin-5-amine]
19 | 1 to 100 | 101 to 999 | Nc1cc(Cc2cnn(Cc3cn(Cc4ccccc4)nn3)c2)c2nn[nH]c2n1 [Example 107, 7-((1-((1-Benzyl-1H-1,2,3-triazol-4-yl)methyl)-1H-pyrazol-4-yl)methyl)-3H-[1,2,3]triazolo[4,5-b]pyridin-5-amine]
20 | 1 to 100 | 101 to 999 | Nc1cc(Cc2cnn(Cc3ccc(C(=O)NCc4cncnc4)cc3)c2)c2nn[nH]c2n1 [Example 93, 4-{[4-({5-Amino-3H-[1,2,3]triazolo[4,5-b]pyridin-7-yl}methyl)-1H-pyrazol-1-yl]methyl}-N-(pyrimidin-5-ylmethyl)benzamide]
21 | 1 to 100 | 101 to 999 | COc1ccc(Cn2cc(Cc3cc(N)nc4[nH]nnc34)cn2)cn1 [Example 149, 7-({1-[(6-Methoxypyridin-3-yl)methyl]-1H-pyrazol-4-yl}methyl)-3H-[1,2,3]triazolo[4,5-b]pyridin-5-amine]
22 | 1 to 100 | 1 to 100 | Nc1cc(Cc2cnn(Cc3cccc([C@@H]4CNCCO4)c3)c2)c2nn[nH]c2n1 [Example 257, 7-{[1-({3-[(2R)-Morpholin-2-yl]phenyl}methyl)-1H-pyrazol-4-yl]methyl}-3H-[1,2,3]triazolo[4,5-b]pyridin-5-amine]
23 | 1 to 100 | 1 to 100 | CCCC1C[C@@H](c2cccc(Cn3cc(Cc4cc(N)nc5[nH]nnc45)cn3)c2)CN1 (stereo partly drawn) [Example 204, 7-{[1-({3-[(3S)-5-propylpyrrolidin-3-yl]phenyl}methyl)-1H-pyrazol-4-yl]methyl}-3H-[1,2,3]triazolo[4,5-b]pyridin-5-amine]
24 | 1 to 100 | 101 to 999 | Cc1nc(-c2ccc(Cl)cc2)sc1Cn1cc(Cc2cc(N)nc3[nH]nnc23)cn1 [Example 119, 7-((1-((2-(4-Chlorophenyl)-4-methylthiazol-5-yl)methyl)-1H-pyrazol-4-yl)methyl)-3H-[1,2,3]triazolo[4,5-b]pyridin-5-amine]
25 | 1 to 100 | 101 to 999 | N#Cc1cc(Br)cc(Cn2cc(Cc3cc(N)nc4[nH]nnc34)cn2)c1 [Example 275, 3-{[4-({5-Amino-3H-[1,2,3]triazolo[4,5-b]pyridin-7-yl}methyl)-1H-pyrazol-1-yl]methyl}-5-bromobenzonitrile]
26 | 1 to 100 | 101 to 999 | COc1cc2cc(Cn3cc(Cc4cc(N)nc5[nH]nnc45)cn3)ccc2cn1 [Example 173, 7-((1-((3-Methoxyisoquinolin-6-yl)methyl)-1H-pyrazol-4-yl)methyl)-3H-[1,2,3]triazolo[4,5-b]pyridin-5-amine]
27 | 1 to 100 | 1 to 100 | Nc1cc(Cc2cnn(Cc3cccc(Oc4cccc(C5CCNCC5)c4)c3)c2)c2nn[nH]c2n1 [Example 236, 7-{[1-({3-[3-(Piperidin-4-yl)phenoxy]phenyl}methyl)-1H-pyrazol-4-yl]methyl}-3H-[1,2,3]triazolo[4,5-b]pyridin-5-amine]
28 | 1 to 100 | 1 to 100 | Nc1cc(Cc2cnn(-c3cccc4ccccc34)c2)c2nn[nH]c2n1 [Example 9, 7-((1-(Naphthalen-1-yl)-1H-pyrazol-4-yl)methyl)-3H-[1,2,3]triazolo[4,5-b]pyridin-5-amine]
29 | 1 to 100 | 101 to 999 | CN(C)CCNC(=O)c1ccc(Cn2cc(Cc3cc(N)nc4[nH]nnc34)cn2)cc1 [Example 72, 4-((4-((5-Amino-3H-[1,2,3]triazolo[4,5-b]pyridin-7-yl)methyl)-1H-pyrazol-1-yl)methyl)-N-(2-(dimethylamino)ethyl)benzamide]
30 | 1 to 100 | 101 to 999 | CN1CCN(c2ccc(Cn3cc(Cc4cc(N)nc5[nH]nnc45)cn3)cc2)CC1 [Example 112, 7-((1-(4-(4-Methylpiperazin-1-yl)benzyl)-1H-pyrazol-4-yl)methyl)-3H-[1,2,3]triazolo[4,5-b]pyridin-5-amine]
